Measured values published in BindingDB's records for doi:10.1124/jpet.105.083964 (Taisho Pharmaceutical, 2005).

Assays:
[1] = target: Gamma-aminobutyric acid receptor subunit alpha-1 (Rattus norvegicus, UniProt P62813)
[2] = target: Type-1 angiotensin II receptor A (Rattus norvegicus, UniProt P25095)
[3] = target: Angiotensin-converting enzyme (Homo sapiens, UniProt P12821)
[4] = target: Prostaglandin G/H synthase 2 (Ovis aries, UniProt P79208)
[5] = target: Prostaglandin G/H synthase 1 (Rattus norvegicus, UniProt Q63921)
B2 bradykinin receptor = B2 bradykinin receptor (Homo sapiens, UniProt P30411)
[6] = target: Gamma-aminobutyric acid (GABA) B receptor 1 (Rattus norvegicus, UniProt Q6MFX8)
Adenosine receptor A1 = Adenosine receptor A1 (Rattus norvegicus, UniProt P25099)
[7] = target: L-type calcium channel (Rattus norvegicus)
Histamine H1 receptor = Histamine H1 receptor (Cavia porcellus, UniProt P31389)
Caspase-3 = Caspase-3 (Homo sapiens, UniProt P42574)
Mu-type opioid receptor = Mu-type opioid receptor (Rattus norvegicus, UniProt P33535)
[8] = target: Sigma non-opioid intracellular receptor 1 (Rattus norvegicus, UniProt Q9R0C9)
D(1A) dopamine receptor = D(1A) dopamine receptor (Rattus norvegicus, UniProt P18901)
[9] = target: Neuronal acetylcholine receptor subunit alpha-9 (Rattus norvegicus, UniProt P43144)
[10] = target: Cholecystokinin receptor type A (Homo sapiens) (UniProt P32238)
D(2) dopamine receptor = D(2) dopamine receptor (Rattus norvegicus, UniProt P61169)
[11] = target: Phosphodiesterase 5A (Homo sapiens)
[12] = target: 5-hydroxytryptamine receptor 2A (Rattus norvegicus, UniProt P14842)
[13] = target: Insulin receptor (Rattus norvegicus) (UniProt P15127)
Phosphodiesterase 3a = Phosphodiesterase 3a (Cavia porcellus, UniProt C7DXW3)
[14] = target: Corticotropin-releasing factor receptor 1 (Rattus norvegicus, UniProt P35353)
Glucocorticoid receptor = Glucocorticoid receptor (Mus musculus, UniProt P06537)
Substance-P receptor = Substance-P receptor (Homo sapiens, UniProt P25103)
[15] = target: Beta-1 adrenergic receptor (Rattus norvegicus, UniProt P18090)
[16] = target: PDGF receptor (Mus musculus)
[17] = target: Glutamate receptor ionotropic, NMDA 1 (Rattus norvegicus, UniProt P35439)
[18] = target: cAMP-specific 3',5'-cyclic phosphodiesterase 4D (Homo sapiens, UniProt Q08499)
Adenosine receptor A2a = Adenosine receptor A2a (Rattus norvegicus, UniProt P30543)
[19] = target: Platelet-activating factor receptor (Oryctolagus cuniculus)
[20] = target: Tumor necrosis factor receptor (Homo sapiens)
[21] = target: Muscarinic acetylcholine receptor M2 (Rattus norvegicus, UniProt P10980)
[22] = target: Type-2 angiotensin II receptor (Bos taurus, UniProt G5E6F7)
[23] = target: 5-hydroxytryptamine receptor 1B (Rattus norvegicus, UniProt P28564)
[24] = target: Nitric oxide synthase, endothelial (Homo sapiens, UniProt P29474)
[25] = target: Endothelin-1 receptor (Rattus norvegicus) (UniProt P26684)
[26] = target: Dual specificity calcium/calmodulin-dependent 3',5'-cyclic nucleotide phosphodiesterase 1A (Bos taurus, UniProt P14100)
[27] = target: Interleukin-1 receptor (Mus musculus)
[28] = target: Vasoactive intestinal polypeptide receptor 1 (Homo sapiens, UniProt P32241)

Measured: Ki

Sequence of Gamma-aminobutyric acid (GABA) B receptor 1 (Q6MFX8 whole entry): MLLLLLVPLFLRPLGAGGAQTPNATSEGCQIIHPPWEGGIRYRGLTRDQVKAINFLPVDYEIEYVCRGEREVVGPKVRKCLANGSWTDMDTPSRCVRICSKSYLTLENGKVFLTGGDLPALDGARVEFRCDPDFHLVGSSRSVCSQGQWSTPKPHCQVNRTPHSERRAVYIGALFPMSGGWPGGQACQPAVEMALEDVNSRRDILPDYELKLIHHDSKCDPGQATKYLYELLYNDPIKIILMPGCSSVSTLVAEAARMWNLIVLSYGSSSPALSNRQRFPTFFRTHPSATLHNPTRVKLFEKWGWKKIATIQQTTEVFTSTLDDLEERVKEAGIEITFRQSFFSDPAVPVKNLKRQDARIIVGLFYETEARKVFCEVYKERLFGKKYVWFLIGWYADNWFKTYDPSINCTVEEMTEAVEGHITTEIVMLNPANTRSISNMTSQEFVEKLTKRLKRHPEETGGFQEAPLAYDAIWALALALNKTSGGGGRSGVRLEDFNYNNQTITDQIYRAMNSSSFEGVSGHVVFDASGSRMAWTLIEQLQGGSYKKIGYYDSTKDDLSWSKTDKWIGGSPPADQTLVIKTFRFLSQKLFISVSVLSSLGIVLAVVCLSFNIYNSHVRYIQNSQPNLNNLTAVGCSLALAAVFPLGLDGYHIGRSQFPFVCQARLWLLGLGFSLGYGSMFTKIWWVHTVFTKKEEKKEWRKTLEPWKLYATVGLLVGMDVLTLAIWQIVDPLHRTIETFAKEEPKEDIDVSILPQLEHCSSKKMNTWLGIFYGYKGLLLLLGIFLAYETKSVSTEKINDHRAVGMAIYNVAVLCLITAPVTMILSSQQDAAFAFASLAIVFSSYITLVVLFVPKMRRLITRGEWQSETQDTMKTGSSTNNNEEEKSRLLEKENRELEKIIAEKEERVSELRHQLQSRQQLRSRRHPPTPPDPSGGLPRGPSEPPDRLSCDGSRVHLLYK
Sequence of D(1A) dopamine receptor (P18901 whole entry): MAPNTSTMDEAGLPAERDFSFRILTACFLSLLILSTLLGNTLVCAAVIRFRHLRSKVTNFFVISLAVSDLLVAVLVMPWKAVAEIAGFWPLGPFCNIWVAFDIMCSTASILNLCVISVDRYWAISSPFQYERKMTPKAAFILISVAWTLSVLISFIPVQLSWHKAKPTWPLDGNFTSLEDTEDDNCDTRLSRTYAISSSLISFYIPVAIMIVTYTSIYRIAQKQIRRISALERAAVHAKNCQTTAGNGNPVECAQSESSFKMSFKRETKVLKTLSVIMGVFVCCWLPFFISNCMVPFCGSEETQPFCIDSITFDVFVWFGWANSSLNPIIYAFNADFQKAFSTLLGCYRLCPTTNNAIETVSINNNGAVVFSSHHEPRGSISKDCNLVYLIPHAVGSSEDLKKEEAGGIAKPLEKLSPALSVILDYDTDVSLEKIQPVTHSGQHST
Sequence of D(2) dopamine receptor (P61169 whole entry): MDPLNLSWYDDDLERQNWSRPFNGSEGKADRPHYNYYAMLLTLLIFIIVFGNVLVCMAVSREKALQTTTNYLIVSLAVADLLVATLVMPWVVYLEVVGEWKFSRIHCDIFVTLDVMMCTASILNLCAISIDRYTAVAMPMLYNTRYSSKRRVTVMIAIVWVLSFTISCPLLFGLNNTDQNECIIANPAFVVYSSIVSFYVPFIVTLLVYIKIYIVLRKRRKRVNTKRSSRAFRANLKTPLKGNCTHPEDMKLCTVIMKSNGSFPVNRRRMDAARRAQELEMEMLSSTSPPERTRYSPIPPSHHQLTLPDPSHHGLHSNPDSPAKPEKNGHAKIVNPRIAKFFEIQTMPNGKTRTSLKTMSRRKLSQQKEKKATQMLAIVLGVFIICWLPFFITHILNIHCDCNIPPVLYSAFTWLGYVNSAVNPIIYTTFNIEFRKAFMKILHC
Sequence of Sigma non-opioid intracellular receptor 1 (Q9R0C9 whole entry): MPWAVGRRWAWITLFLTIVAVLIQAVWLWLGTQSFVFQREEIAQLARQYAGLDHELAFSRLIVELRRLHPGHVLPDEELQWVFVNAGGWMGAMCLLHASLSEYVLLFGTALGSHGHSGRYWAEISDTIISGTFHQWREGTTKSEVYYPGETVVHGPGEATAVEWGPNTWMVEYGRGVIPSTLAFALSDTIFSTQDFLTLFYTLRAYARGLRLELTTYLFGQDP
Sequence of Gamma-aminobutyric acid receptor subunit alpha-1 (P62813 whole entry): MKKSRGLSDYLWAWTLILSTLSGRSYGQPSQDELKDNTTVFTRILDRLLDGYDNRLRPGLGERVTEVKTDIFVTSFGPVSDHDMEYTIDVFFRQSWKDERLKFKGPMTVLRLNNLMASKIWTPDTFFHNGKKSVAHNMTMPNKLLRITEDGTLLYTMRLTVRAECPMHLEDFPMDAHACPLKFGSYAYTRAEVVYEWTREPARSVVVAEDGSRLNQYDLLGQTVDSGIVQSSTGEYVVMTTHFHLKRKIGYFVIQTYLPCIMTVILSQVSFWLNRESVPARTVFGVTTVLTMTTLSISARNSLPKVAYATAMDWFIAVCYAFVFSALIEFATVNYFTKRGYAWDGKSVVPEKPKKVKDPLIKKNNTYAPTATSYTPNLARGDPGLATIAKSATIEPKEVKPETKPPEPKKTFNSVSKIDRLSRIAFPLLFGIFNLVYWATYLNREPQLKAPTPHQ
Sequence of 5-hydroxytryptamine receptor 1B (P28564 whole entry): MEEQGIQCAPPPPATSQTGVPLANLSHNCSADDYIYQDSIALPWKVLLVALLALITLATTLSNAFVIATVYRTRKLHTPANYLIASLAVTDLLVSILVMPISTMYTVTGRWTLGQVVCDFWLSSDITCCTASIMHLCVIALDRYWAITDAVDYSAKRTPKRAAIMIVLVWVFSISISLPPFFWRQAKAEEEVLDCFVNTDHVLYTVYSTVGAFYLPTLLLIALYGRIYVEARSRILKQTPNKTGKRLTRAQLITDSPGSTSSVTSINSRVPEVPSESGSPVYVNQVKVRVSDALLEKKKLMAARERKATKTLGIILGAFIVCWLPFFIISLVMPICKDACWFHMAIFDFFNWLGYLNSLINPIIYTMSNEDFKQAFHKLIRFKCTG
Sequence of Adenosine receptor A1 (P25099 whole entry): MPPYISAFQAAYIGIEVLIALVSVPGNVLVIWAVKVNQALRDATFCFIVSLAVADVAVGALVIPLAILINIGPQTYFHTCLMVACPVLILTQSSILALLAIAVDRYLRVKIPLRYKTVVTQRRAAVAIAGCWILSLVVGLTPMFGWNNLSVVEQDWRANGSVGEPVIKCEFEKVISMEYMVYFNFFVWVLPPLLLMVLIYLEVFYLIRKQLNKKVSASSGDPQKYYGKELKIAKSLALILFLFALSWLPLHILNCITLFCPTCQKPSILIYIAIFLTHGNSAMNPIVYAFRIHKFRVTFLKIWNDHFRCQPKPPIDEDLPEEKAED
Sequence of Angiotensin-converting enzyme (P12821 whole entry): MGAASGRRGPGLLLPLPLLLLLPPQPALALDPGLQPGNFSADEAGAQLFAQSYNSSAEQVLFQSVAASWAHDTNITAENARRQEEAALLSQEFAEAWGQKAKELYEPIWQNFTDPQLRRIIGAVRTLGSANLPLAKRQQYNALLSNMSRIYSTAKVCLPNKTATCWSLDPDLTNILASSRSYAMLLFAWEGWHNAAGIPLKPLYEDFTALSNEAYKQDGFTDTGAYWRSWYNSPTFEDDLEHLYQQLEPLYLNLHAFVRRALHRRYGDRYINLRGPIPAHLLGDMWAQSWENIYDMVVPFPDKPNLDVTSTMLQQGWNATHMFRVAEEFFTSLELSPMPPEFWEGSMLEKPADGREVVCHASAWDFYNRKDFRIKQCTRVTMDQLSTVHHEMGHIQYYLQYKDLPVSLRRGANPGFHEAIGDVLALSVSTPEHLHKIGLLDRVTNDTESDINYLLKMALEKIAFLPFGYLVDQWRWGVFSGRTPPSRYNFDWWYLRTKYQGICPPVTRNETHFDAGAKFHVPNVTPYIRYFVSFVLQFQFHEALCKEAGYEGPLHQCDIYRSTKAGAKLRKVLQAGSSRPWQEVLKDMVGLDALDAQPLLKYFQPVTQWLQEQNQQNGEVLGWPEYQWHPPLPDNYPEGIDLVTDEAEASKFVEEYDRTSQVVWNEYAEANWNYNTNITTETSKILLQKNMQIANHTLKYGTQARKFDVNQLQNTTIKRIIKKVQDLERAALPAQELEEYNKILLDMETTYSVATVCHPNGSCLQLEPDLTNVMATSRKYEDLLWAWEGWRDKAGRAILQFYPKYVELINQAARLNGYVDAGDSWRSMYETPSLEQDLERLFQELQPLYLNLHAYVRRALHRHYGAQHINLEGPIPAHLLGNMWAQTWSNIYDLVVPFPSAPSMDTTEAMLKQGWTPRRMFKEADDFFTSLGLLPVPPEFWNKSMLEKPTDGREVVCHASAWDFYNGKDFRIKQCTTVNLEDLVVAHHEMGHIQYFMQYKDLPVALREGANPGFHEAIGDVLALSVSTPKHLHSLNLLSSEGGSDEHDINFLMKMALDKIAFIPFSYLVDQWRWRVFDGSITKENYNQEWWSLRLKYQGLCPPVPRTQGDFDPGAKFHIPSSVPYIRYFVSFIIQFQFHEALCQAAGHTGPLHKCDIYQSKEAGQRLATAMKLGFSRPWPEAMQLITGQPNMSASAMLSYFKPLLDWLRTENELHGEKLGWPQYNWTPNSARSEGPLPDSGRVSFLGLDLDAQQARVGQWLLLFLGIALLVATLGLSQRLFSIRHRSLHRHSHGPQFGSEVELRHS
Sequence of 5-hydroxytryptamine receptor 2A (P14842 whole entry): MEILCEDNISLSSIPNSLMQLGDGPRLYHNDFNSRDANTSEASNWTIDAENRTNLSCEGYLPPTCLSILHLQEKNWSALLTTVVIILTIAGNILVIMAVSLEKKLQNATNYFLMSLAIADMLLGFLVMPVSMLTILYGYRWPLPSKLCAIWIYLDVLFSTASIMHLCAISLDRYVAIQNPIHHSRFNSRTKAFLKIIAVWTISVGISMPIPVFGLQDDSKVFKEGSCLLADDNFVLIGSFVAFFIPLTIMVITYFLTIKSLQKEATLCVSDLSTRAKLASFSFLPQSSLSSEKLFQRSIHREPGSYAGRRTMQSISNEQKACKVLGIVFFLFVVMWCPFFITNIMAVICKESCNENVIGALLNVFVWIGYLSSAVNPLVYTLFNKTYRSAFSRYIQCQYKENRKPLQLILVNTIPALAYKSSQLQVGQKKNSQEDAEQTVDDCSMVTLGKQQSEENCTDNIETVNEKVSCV

O/N=C/Nc1ccc(N2CCOCC2)c(Cl)c1 [N'-(3-Chloro-4-morpholinophenyl)-N-hydroxyformamidine]
> 10 µM: all assays above
